# Measured values: patent publication US20190024193A1, “Sesquiterpene Biosensors and Uses Thereof” (priority 2017, published 2019)
# What was measured:
# PB2 bisabolol biosensor = PB2 bisabolol biosensor reporter fluorescence (Gemini reporter, GFP portion) in E. coli EPI300 host cells; assay type: cell-based, E. coli EPI300 (PB2 insert originating from Pseudomonas); settings: E. coli EPI300 with PB2, high (0.01% arabinose) or low copy number
# Method: (§1) A metagenomic library made from environmental samples obtained from hots springs, permafrost, sea water, soil, and hydrocarbon resource samples (from soil) was made using the Meta-G-Nome™ DNA Isolation Kit and CopyControl™ Fosmid Library Production Kit obtained from Epicentre. 300-400 fosmid clones from this library were obtained and mixed with a Tn5 transposase and sufficient biosensor construct (FIG. 1) was added to give about 10 biosensor inserts per fosmid. The transposase randomly integrated the biosensor construct into the fosmid vector, and the modified fosmid library with biosensor constructs was transformed into E. coli strain EPI300™ (commercially sold by Epicentre). The E. coli EPI300™ transformed with the modified fosmid library was plated on LB media with 20 μg/ml spectinomycin and 0.01% arabinose.
# (§2) These functional biosensors were interrogated with (−)-α-bisabolol and clones that produced reporter fluorescence above control in response to the (−)-α-bisabolol were selected. Two bisabolol positive clones were selected and designated PB2 and PB3. PB2 was obtained from a fosmid with an insert originating from Pseudomonas, and PB3 was obtained from a fosmid with an insert originating from Bradyrhizobium.
# (§3) As described above, the copy number of the fosmids with the PB2 biosensor and the PB3 biosensor can by increased in E. coli EPI300™ host cells that are treated with arabinose to induce an increase in copy number of the fosmid. E. coli EPI300™ with the PB2 or PB3 biosensors were treated (high copy number) or not treated (low copy number) with arabinose and then screened for reporter activity (Gemini reporter fluorescence from the GFP portion).
# (§4) E. coli EPI300™ with fosmids containing PB2 or PB3 were grown without arabinose (low copy number) and in the presence of spectinomycin (200 μg/ml for PB2 and 500 μg/ml for PB3). The host cells were treated with different concentrations of (−)-α-bisabolol (0.0, 0.1, 0.25, 0.4, 0.5, 1.0 and 1.5 mM). FIGS. 6 and 7 show the fluorescence results for PB2 and PB3. Both biosensors show a dose response between 0.05 and 1.0 mM (−)-α-bisabolol.
# (§5) E. coli EPI300™ with fosmids containing PB2 or PB3 were grown with 0.01% arabinose for high copy number of the biosensor, or grown in the absence of arabinose for low copy number of the biosensor, and then treated with a sesquiterpene: (−)-α-bisabolol, squalene, nerolidol, cintonellal, carvone, farnesene, or cineole. PB2 was also tested against linalool and PB3 was tested against ursolic acid.
# PB3 bisabolol biosensor = PB3 bisabolol biosensor reporter fluorescence (Gemini reporter, GFP portion) in E. coli EPI300 host cells; assay type: cell-based, E. coli EPI300 (PB3 insert originating from Bradyrhizobium); settings: for response of PB3 biosensor to stimulation with the compound: E. coli EPI300 with PB3, high (0.01% arabinose) or low copy number
# Method: as §1, §2, §3, §4, §5
Compound,response of PB2 biosensor to stimulation with the compound (PB2 bisabolol biosensor),response of PB3 biosensor to stimulation with the compound (PB3 bisabolol biosensor),"response of PB3 biosensor relative to (−)-α-bisabolol (PB3 bisabolol biosensor; E. coli EPI300 with PB3, 1 mM nerolidol)"
CC(C)=CCC[C@](C)(O)[C@@H]1CC=C(C)CC1 [(−)-α-bisabolol],high specificity for induction,–,–
C=C(C)C1CC=C(C)C(=O)C1 (stereo not drawn) [carvone],did not respond above background,did not respond above background,–
CC12CCC(CC1)C(C)(C)O2 [cineole],did not respond above background,did not respond above background,–
CC(C)=CCC[C@@H](C)CC=O [cintonellal],did not respond above background,did not respond above background,–
C=CC(C)(O)CCC=C(C)C (stereo not drawn) [linalool],did not respond above background,–,–
C=CC(C)(O)CCC=C(C)CCC=C(C)C (stereo not drawn) [nerolidol],did not respond above background,–,comparable activity to PB3 treated with 0.2 mM (−)-α-bisabolol
CC(C)=CCC/C(C)=C/CC/C(C)=C/CC/C=C(\C)CC/C=C(\C)CCC=C(C)C [squalene],did not respond above background,did not respond above background,–
C[C@H]1[C@H](C)CC[C@]2(C(=O)O)CC[C@]3(C)C(=CC[C@@H]4[C@@]5(C)CC[C@H](O)C(C)(C)[C@@H]5CC[C@]43C)[C@H]12 [ursolic acid],–,did not respond above background,–
farnesene,did not respond above background,did not respond above background,–
